For the experiment, the target named is human kallikrein 7 (Homo sapiens, UniProt P49862). In words: Kallikrein-7 inhibitory activity in vitro (fluorescence-quenched substrate). The experiment is classed as biochemical.
Chain of human kallikrein 7 (P49862 30-253): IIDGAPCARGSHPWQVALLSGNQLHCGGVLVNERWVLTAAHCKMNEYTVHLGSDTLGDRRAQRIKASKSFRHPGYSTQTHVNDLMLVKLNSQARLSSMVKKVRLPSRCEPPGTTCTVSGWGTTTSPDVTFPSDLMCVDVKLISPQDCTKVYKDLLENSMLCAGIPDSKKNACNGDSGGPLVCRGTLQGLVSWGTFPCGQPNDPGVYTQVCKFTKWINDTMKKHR

As to `CCC(C)[C@@H]1NC(=O)[C@H](Cc2ccc(O)cc2)N(C)C(=O)[C@H](C(C)CC)N2C(=O)C(CC[C@@H]2O)NC(=O)[C@H](CC(C)C)NC(=O)[C@@H](NC(=O)[C@H](CCC(N)=O)NC(=O)C(C)C)[C@@H](C)OC1=O` (some centres unmarked) [formula II], the IC50 was found to be 1 nM (hKallikrein7 IC50, Table 10) and 1 nM (hKallikrein7 IC 50, Table 11).

For the origin of these results see US9127044B2, “Cyclic depsipeptides” (NOVARTIS AG, priority 2007, dated 2015).
